Source: paper PMC4823954, “From fighting depression to conquering tumors: a novel tricyclic thiazepine compound as a tubulin polymerization inhibitor” (Cell Death & Disease, 2016)

Key:
Experiment in all cases: KINOMEscan
Format in all cases: binding
Conditions in all cases: read-out: % Ctrl
[1] = target: T1, ABL1(T315I)-nonphosphorylated (Homo sapiens, UniProt P00519, T315I)
T1 construct: purchased DiscoveRx KINOMEscan

[2] = target: T2, ACVR1 (Homo sapiens, UniProt Q04771)
T2 construct: purchased DiscoveRx KINOMEscan
T2 sequence (Q04771 21-509): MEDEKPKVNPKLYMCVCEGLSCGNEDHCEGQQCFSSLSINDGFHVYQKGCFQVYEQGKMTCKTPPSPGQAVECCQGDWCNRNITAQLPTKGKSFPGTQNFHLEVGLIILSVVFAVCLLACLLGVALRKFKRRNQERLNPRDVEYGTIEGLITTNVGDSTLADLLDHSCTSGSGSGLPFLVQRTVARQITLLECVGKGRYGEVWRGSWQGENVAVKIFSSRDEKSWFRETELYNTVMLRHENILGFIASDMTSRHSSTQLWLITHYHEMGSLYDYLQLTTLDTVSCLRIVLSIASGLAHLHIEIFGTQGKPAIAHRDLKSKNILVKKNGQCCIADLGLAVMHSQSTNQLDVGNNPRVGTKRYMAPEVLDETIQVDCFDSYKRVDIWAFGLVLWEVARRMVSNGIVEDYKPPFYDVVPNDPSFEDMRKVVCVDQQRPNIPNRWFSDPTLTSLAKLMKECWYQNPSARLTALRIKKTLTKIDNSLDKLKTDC
Method in brief: (§1)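 Competition binding panel of 442 non-mutant kinases: test compound at 5 and 10 μM competed with an active-site-directed ligand for 1 h with shaking. Bound kinase was eluted with 0.5 μM ligand and quantified by qPCR; %Ctrl = (compound − positive control)/(DMSO − positive control) × 100, lower meaning tighter binding.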

[3] = target: T3, ADCK3 (Homo sapiens, UniProt Q8NI60)
T3 construct: purchased DiscoveRx KINOMEscan
Method in brief: as §1

[4] = target: T4, ARK5 (Homo sapiens, UniProt O60285)
T4 construct: purchased DiscoveRx KINOMEscan
Method in brief: as §1

[5] = target: T5, BRAF(V600E) (Homo sapiens, UniProt P15056, V600E)
T5 construct: purchased DiscoveRx KINOMEscan
T5 sequence (P15056 whole entry V600E): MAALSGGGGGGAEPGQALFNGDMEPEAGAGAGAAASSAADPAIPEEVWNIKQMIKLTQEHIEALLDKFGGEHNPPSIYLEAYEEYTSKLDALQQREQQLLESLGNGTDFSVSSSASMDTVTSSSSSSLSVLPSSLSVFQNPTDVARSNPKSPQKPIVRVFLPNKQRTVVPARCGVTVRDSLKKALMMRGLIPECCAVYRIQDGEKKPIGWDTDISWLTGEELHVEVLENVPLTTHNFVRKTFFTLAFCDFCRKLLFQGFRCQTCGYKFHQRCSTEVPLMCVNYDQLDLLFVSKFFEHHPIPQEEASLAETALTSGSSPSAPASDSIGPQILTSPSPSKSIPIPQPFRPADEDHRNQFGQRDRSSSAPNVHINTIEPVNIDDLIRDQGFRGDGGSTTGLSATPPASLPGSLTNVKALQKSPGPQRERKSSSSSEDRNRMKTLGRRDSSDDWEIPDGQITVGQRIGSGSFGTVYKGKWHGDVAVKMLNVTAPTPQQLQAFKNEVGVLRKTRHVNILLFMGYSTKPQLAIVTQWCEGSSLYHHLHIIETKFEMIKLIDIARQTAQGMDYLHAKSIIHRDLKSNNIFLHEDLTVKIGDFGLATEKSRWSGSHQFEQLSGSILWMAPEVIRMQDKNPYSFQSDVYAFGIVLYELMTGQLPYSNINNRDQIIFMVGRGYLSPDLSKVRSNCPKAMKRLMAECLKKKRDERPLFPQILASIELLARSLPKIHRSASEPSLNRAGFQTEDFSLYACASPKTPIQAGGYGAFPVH

[6] = target: T6, CDK11 (Homo sapiens, UniProt Q9BWU1)
T6 construct: purchased DiscoveRx KINOMEscan
T6 sequence (Q9BWU1 whole entry): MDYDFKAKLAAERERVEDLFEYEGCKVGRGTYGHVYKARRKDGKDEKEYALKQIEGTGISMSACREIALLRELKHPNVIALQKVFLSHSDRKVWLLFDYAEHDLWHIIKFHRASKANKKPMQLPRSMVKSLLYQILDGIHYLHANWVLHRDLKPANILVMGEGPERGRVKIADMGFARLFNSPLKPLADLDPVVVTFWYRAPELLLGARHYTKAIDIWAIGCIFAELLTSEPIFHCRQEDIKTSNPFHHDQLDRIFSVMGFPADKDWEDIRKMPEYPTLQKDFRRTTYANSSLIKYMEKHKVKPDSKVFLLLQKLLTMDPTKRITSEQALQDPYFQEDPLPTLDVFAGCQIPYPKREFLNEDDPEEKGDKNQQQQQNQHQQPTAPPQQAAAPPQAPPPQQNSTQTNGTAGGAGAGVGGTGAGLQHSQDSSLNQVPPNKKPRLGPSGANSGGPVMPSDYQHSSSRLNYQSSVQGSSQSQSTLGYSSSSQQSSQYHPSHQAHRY
Method in brief: as §1

[7] = target: T7, CDK4-cyclinD3 (Homo sapiens, UniProt P11802)
T7 construct: purchased DiscoveRx KINOMEscan
T7 sequence (P11802 whole entry): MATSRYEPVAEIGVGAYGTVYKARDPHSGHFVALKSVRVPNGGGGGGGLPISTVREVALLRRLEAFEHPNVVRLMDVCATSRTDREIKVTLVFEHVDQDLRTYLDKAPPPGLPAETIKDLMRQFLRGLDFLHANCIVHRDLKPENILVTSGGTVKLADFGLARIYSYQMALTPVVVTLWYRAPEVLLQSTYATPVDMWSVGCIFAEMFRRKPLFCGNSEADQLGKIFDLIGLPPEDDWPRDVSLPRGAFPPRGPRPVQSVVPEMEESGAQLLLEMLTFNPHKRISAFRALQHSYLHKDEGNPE
T7 sequence (P30281 whole entry partner): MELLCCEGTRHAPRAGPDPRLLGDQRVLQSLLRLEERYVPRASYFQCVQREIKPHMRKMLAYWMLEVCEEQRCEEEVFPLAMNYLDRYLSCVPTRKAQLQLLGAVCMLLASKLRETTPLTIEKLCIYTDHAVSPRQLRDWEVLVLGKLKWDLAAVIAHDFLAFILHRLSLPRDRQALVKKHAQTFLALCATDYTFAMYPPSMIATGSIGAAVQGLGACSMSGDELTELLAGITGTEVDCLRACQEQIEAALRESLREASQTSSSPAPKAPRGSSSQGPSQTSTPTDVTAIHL
Method in brief: as §1

[8] = target: T8, CIT (Homo sapiens, UniProt O14578)
T8 construct: purchased DiscoveRx KINOMEscan
Method in brief: as §1

[9] = target: T9, ERK1 (Homo sapiens, UniProt P27361)
T9 construct: purchased DiscoveRx KINOMEscan
Method in brief: as §1

[10] = target: T10, FGFR2 (Homo sapiens, UniProt P21802)
T10 construct: purchased DiscoveRx KINOMEscan
Method in brief: as §1

[11] = target: T11, LIMK2 (Homo sapiens, UniProt P53671)
T11 construct: purchased DiscoveRx KINOMEscan
T11 sequence (P53671 whole entry): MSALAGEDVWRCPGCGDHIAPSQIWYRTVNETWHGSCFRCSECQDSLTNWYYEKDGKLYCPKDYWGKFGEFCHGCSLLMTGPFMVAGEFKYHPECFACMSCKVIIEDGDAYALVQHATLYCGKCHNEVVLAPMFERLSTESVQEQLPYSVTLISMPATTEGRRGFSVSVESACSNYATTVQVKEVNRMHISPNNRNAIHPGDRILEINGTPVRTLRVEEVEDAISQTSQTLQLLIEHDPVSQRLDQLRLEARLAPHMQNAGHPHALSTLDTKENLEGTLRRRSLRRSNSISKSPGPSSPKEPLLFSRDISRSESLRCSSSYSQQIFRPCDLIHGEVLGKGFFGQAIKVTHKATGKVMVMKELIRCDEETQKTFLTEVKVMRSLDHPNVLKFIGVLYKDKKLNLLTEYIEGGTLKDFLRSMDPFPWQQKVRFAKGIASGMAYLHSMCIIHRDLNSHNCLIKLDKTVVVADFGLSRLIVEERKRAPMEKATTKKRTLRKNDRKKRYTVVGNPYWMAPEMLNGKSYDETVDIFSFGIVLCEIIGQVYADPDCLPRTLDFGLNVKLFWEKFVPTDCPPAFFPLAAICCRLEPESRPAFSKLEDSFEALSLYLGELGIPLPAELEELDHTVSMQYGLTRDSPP
Method in brief: as §1

[12] = target: T12, MAP4K5 (Homo sapiens, UniProt Q9Y4K4)
T12 construct: purchased DiscoveRx KINOMEscan
Method in brief: as §1

[13] = target: T13, MEK2 (Homo sapiens, UniProt P36507)
T13 construct: purchased DiscoveRx KINOMEscan
T13 sequence (P36507 whole entry): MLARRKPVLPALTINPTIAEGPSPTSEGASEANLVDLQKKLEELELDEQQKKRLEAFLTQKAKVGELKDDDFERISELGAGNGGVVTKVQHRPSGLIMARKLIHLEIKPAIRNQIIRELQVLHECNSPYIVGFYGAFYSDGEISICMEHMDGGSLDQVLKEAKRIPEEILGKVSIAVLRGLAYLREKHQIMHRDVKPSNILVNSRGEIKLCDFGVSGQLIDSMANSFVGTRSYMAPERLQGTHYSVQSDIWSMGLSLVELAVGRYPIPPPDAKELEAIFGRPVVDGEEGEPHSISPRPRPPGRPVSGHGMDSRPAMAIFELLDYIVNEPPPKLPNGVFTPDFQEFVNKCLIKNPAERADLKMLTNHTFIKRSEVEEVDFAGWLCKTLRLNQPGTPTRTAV
Method in brief: as §1

[14] = target: T14, MKNK2 (Homo sapiens, UniProt Q9HBH9)
T14 construct: purchased DiscoveRx KINOMEscan
Method in brief: as §1

[15] = target: T15, NDR2 (Homo sapiens, UniProt Q9Y2H1)
T15 construct: purchased DiscoveRx KINOMEscan
Method in brief: as §1

[16] = target: T16, NEK1 (Homo sapiens, UniProt Q96PY6)
T16 construct: purchased DiscoveRx KINOMEscan
Method in brief: as §1

[17] = target: T17, PFTK1 (Homo sapiens, UniProt O94921)
T17 construct: purchased DiscoveRx KINOMEscan
T17 sequence (O94921 whole entry): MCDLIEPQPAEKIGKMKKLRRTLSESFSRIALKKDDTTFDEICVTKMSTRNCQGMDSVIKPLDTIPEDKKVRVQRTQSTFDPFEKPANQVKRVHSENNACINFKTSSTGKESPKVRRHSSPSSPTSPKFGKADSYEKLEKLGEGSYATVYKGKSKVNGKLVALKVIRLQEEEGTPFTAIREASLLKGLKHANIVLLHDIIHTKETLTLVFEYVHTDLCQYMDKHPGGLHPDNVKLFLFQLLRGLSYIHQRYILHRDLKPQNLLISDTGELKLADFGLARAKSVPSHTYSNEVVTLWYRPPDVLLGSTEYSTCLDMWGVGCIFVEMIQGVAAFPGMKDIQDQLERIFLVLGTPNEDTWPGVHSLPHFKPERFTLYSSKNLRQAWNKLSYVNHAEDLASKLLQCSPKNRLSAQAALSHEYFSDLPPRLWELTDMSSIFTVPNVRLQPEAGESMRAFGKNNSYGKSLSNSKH
Method in brief: as §1

[18] = target: T18, PIK3CA(C420R) (Homo sapiens, UniProt P42336, C420R)
T18 construct: purchased DiscoveRx KINOMEscan

[19] = target: T19, RET(V804M) (Homo sapiens, UniProt P07949, V804M)
T19 construct: purchased DiscoveRx KINOMEscan

[20] = target: T20, RPS6KA4(Kin.Dom.1-N-terminal) (Homo sapiens, UniProt O75676)
T20 construct: RPS6KA4(Kin.Dom.1-N-terminal); purchased DiscoveRx KINOMEscan
Method in brief: as §1

[21] = target: T21, RSK3(Kin.Dom.1-N-terminal) (Homo sapiens, UniProt Q15349)
T21 construct: RSK3(Kin.Dom.1-N-terminal); purchased DiscoveRx KINOMEscan
Method in brief: as §1

[22] = target: T22, RSK4(Kin.Dom.1-N-terminal) (Homo sapiens, UniProt Q9UK32)
T22 construct: RSK4(Kin.Dom.1-N-terminal); purchased DiscoveRx KINOMEscan
Method in brief: as §1

[23] = target: T23, SBK1 (Homo sapiens, UniProt Q52WX2)
T23 construct: purchased DiscoveRx KINOMEscan
Method in brief: as §1

[24] = target: T24, SNRK (Homo sapiens, UniProt Q9NRH2)
T24 construct: purchased DiscoveRx KINOMEscan
T24 sequence (Q9NRH2 whole entry): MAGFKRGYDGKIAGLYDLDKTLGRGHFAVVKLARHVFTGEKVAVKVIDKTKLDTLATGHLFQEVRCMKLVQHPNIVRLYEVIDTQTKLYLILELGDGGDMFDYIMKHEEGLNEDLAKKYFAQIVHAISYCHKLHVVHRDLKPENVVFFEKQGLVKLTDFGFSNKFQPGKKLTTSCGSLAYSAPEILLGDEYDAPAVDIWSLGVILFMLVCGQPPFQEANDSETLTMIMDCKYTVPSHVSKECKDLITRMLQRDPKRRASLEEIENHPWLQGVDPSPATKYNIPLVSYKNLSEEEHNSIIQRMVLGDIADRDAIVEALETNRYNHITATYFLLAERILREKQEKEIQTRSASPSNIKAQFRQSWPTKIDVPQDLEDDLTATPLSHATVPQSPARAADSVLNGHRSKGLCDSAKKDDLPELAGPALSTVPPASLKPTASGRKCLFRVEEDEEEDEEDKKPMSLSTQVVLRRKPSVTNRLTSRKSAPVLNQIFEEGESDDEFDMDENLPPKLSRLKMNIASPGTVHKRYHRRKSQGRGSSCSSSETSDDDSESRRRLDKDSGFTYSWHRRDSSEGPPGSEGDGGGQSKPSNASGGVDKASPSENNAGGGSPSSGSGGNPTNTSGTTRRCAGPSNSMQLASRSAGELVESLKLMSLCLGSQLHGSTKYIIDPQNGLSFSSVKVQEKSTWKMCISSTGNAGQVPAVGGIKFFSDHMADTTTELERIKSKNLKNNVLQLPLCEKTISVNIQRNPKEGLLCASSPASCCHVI
Method in brief: as §1

[25] = target: T25, TAOK2 (Homo sapiens, UniProt Q9UL54)
T25 construct: purchased DiscoveRx KINOMEscan
Method in brief: as §1

[26] = target: T26, TEC (Homo sapiens, UniProt P42680)
T26 construct: purchased DiscoveRx KINOMEscan
Method in brief: as §1

[27] = target: T27, TYK2(JH2domain-pseudokinase) (Homo sapiens, UniProt P29597)
T27 construct: TYK2(JH2domain-pseudokinase); purchased DiscoveRx KINOMEscan
Method in brief: as §1

[28] = target: T28, p38-gamma (Homo sapiens, UniProt P53778)
T28 construct: purchased DiscoveRx KINOMEscan
T28 sequence (P53778 whole entry): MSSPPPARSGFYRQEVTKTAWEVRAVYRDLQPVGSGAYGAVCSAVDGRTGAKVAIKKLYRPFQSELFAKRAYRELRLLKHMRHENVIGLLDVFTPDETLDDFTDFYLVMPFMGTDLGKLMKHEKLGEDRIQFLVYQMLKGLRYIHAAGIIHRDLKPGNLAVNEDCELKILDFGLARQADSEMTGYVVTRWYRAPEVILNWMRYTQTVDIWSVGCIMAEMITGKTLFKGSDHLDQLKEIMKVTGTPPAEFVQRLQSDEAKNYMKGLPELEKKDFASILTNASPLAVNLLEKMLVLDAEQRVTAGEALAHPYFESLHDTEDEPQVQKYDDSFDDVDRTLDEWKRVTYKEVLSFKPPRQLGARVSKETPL
Method in brief: as §1

Cc1ccc(C2=Nc3cccnc3S(=O)(=O)c3ccccc32)cc1 [TBPT, 6-(p-tolyl)benzo[f] pyrido[2,3-b][1,4] thiazepine 11,11-dioxide]
remaining binding at 5 µM ([1]; 5 μM): 100% | remaining binding at 10 µM ([1]; 10 μM): 100% | remaining binding at 5 µM ([2]; 5 μM): 100% | remaining binding at 10 µM ([2]; 10 μM): 100% | remaining binding at 5 µM ([3]; 5 μM): 98% | remaining binding at 10 µM ([3]; 10 μM): 100% | remaining binding at 5 µM ([4]; 5 μM): 100% | remaining binding at 10 µM ([4]; 10 μM): 100% | remaining binding at 5 µM ([5]; 5 μM): 94% | remaining binding at 10 µM ([5]; 10 μM): 94% | remaining binding at 5 µM ([6]; 5 μM): 100% | remaining binding at 10 µM ([6]; 10 μM): 100% | remaining binding at 5 µM ([7]; 5 μM): 100% | remaining binding at 10 µM ([7]; 10 μM): 90% | remaining binding at 5 µM ([8]; 5 μM): 98% | remaining binding at 10 µM ([8]; 10 μM): 97% | remaining binding at 5 µM ([9]; 5 μM): 100% | remaining binding at 10 µM ([9]; 10 μM): 100% | remaining binding at 5 µM ([10]; 5 μM): 93% | remaining binding at 10 µM ([10]; 10 μM): 100% | remaining binding at 5 µM ([11]; 5 μM): 91% | remaining binding at 10 µM ([11]; 10 μM): 100% | remaining binding at 5 µM ([12]; 5 μM): 100% | remaining binding at 10 µM ([12]; 10 μM): 85% | remaining binding at 5 µM ([13]; 5 μM): 92% | remaining binding at 10 µM ([13]; 10 μM): 100% | remaining binding at 5 µM ([14]; 5 μM): 100% | remaining binding at 10 µM ([14]; 10 μM): 96% | remaining binding at 5 µM ([15]; 5 μM): 100% | remaining binding at 10 µM ([15]; 10 μM): 100% | remaining binding at 5 µM ([16]; 5 μM): 90% | remaining binding at 10 µM ([16]; 10 μM): 100% | remaining binding at 5 µM ([17]; 5 μM): 100% | remaining binding at 10 µM ([17]; 10 μM): 100% | remaining binding at 5 µM ([18]; 5 μM): 100% | remaining binding at 10 µM ([18]; 10 μM): 100% | remaining binding at 5 µM ([19]; 5 μM): 84% | remaining binding at 10 µM ([19]; 10 μM): 96% | remaining binding at 5 µM ([20]; 5 μM): 75% | remaining binding at 10 µM ([20]; 10 μM): 100% | remaining binding at 5 µM ([21]; 5 μM): 100% | remaining binding at 10 µM ([21]; 10 μM): 82% | remaining binding at 5 µM ([22]; 5 μM): 83% | remaining binding at 10 µM ([22]; 10 μM): 94% | remaining binding at 5 µM ([23]; 5 μM): 100% | remaining binding at 10 µM ([23]; 10 μM): 85% | remaining binding at 5 µM ([24]; 5 μM): 100% | remaining binding at 10 µM ([24]; 10 μM): 100% | remaining binding at 5 µM ([25]; 5 μM): 90% | remaining binding at 10 µM ([25]; 10 μM): 67% | remaining binding at 5 µM ([26]; 5 μM): 90% | remaining binding at 10 µM ([26]; 10 μM): 99% | remaining binding at 5 µM ([27]; 5 μM): 82% | remaining binding at 10 µM ([27]; 10 μM): 100% | remaining binding at 5 µM ([28]; 5 μM): 100% | remaining binding at 10 µM ([28]; 10 μM): 88%
